{
  "source": "patent US20100069398A1",
  "about": "“Combination therapy” (priority 2004, published 2010)",
  "origin": "cited, not measured here",
  "system": "tumour models",
  "conditions": "once-daily oral administration, range of models",
  "data": [
    {"compound": "COc1cc2c(Nc3ccc(Br)cc3F)ncnc2cc1OCC1CCN(C)CC1", "note": "[ZD6474, 4-(4-bromo-2-fluoroanilino)-6-methoxy-7-(1-methylpiperidin-4-ylmethoxy)quinazoline]", "values": [
      {"measurement": "anti-tumour activity", "result": "broad-spectrum anti-tumour activity"}
    ]}
  ]
}
